Reference: ChEMBL document CHEMBL1127656, “Articulating a pharmacophore driven synthetic strategy: Discovery of a potent substance P antagonist” (Bioorg Med Chem Lett, 1994)

Biological target: Substance-P receptor (Homo sapiens, UniProt P25103)
Experiment: In vitro binding affinity towards human NK-1 receptor in IM-9 cells using [3H]SP of substance P antagonist
Type: cell-based

Substance-P receptor, sequence (P25103 whole entry): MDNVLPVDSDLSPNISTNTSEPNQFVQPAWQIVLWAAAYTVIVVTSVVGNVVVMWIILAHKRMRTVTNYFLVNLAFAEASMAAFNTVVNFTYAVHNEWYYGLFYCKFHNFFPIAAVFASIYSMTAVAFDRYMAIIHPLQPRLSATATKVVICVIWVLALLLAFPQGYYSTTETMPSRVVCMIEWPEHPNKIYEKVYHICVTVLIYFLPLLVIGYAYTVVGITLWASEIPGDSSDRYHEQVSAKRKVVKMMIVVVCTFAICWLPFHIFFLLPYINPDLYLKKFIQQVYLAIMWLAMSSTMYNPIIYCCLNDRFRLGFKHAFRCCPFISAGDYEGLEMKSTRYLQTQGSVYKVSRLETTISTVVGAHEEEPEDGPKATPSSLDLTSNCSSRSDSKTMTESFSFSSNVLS

Ki: 2.4 nM
SMILES: COc1ccccc1CN[C@H]1[C@@H]2CCC[C@@H]2N[C@H]1c1ccccc1 (racemic)
